# Results published in US20030181426A1, “Compositions and methods for treating pain using cyclooxygenase-1 inhibitors” (priority 2002, published 2003).
# “Also recorded” adds a separate entry of the source. Read-outs that look alike come from different tables or passages of the source.
# Experiments:
# [1] = system: COX-1 and COX-2; conditions: as known in the art / Warner, 1999; cited from earlier work
# [2] = system: acetic acid-induced writhing response; conditions: mice; COX-1 sensitive pain models; Ochi et al. 2000; cited from earlier work
# [3] = system: inflammation; conditions: rat animal model; compared to indomethancin; Mansferrer et al. 1994; cited from earlier work
# [4] = system: tactile allodynia; test: Partial sciatic nerve ligation (PSNL) tactile allodynia, i.t. COX inhibitors; assay type: in vivo, Sprague-Dawley rats
# Excerpt: A Sprague-Dawley rats (Harlan Industries, Indianapolis, Ind., USA), weighing 200-250 g, were used in this study. All animal surgical procedures were in conformity with the Wake Forest University guidelines on the ethical use of animals and studies were approved by the Animal Care and Use Committee. Animals were implanted with intrathecal catheters according to the method described previously. (Yaksh TL, 1976). Briefly, under halothane anesthesia (2-4% in oxygen/air), animals were placed prone in a stereotaxic frame and a small incision was made at the back of the neck. A small puncture was made in the atlanto-occipital membrane of the cistema magna and a polyethylene catheter (PE-10, 7.5 cm) was inserted so that the caudal tip reached the lumbar enlargement of the spinal cord. The rostral end of the catheter was exteriorized at the top of the head and the wound was closed with sutures. Animals were allowed 4-5 days to recover from the surgery and those displaying signs of motor dysfunction (fore limb or hind limb paralysis) were excluded from the study. Rats were anesthetized with 2-4% halothane in oxygen-air. For partial […] nerve ligation (PSNL), the left sciatic nerve was exposed at the high thigh level and one-third to one-half of the nerve was ligated with silk suture (size 6) as previously described (Shir et al., 1991). Animals were maintained after surgery with ad libitum food and water on a 12-h light/dark cycle. All rats were allowed to recover for 4 weeks after PSNL. By then, tactile allodynia was well established in the ipsilateral hindpaw.
# [5] = system: noxious heat; test: Latency to paw withdrawal from noxious heat; assay type: in vivo, male Sprague-Dawley rats; conditions: drug alone; rats with intrathecal catheter
# Method: After Animal Care and Use Committee approval, adult male Sprague-Dawley rats (240-330 g; Harlan, Indianapolis, Ind.) were anesthetized with halothane. A catheter was inserted, as previously described, through a small nick in the cisterna magnum membrane into the intrathecal space and advanced 7.5 cm such that its tip lay in the lumbar intrathecal space. […] After catheter implantation, rats were housed individually with a 12 h/12 h light/dark cycle and an unlimited supply of water and food. Experiments occurred at least 6 days after surgery.
# [6] = system: tactile allodynia; test: L5 and L6 spinal nerve ligation (SNL) tactile allodynia, lidocaine and ketorolac; assay type: in vivo, male Sprague-Dawley rats
# [7] = rat, in vivo, ip
# [8] = Hind limb weakness or paralysis after lidocaine injection
# [9] = system: tactile allodynia; test: PSNL tactile allodynia, lidocaine; assay type: in vivo, male Sprague-Dawley rats
# [10] = system: locomotor activity after laparotomy; test: Post-laparotomy locomotor activity model; assay type: in vivo, rats
# [11] = system: nociceptive responses; conditions: mice with paw inflammation; Mazario et al. 2001; cited from earlier work
# [12] = system: nociceptive responses; conditions: normal and monoarthritic rats; Mazario et al. 2001; cited from earlier work
# [13] = 300 μg intrathecal, 3 days after injection
# [14] = IV 3 mg/kg, 24 hr after laparotomy, 3 mg/kg
smiles,measurement,setting,value
COc1ccc2cc(CC(=O)O)ccc2c1 [6-methoxy-2-napthyl acetic acid],preference in inhibition of COX-1 and COX-2,[1],preferentially inhibit COX-2
COc1ccc(-c2nc(C(=O)N3CCN(C)CC3)sc2-c2ccc(OC)cc2)cc1 [FR122047],analgesic effect against acetic acid-induced writhing response,[2],dose-dependent analgesic effect
CS(=O)(=O)Nc1ccc([N+](=O)[O-])cc1OC1CCCCC1 [NS-398],anti-inflammatory and ulcerogenic effect,[3],anti-inflammatory but not ulcerogenic
same,analgesic effect against acetic acid-induced writhing response,[2],had no effect
same,"withdrawal threshold, ipsilateral hindpaw",[4]; 2 and 4 h after injection,reversed to pre-lesion baseline level
same,duration of reversal of withdrawal threshold,[4]; 4 weeks after PSNL,24 h
same,"withdrawal threshold, ipsilateral hindpaw",[4]; 48 h post-injection,returned to pre-injection level
Clc1cccc(Cl)c1N=C1NCCN1 [clonidine],antinociception (latency to paw withdrawal from noxious heat),[5],produced antinociception
CC(C(=O)O)c1ccc(-c2ccccc2)c(F)c1 (stereo not shown) [flubiprofen],preference in inhibition of COX-1 and COX-2,[1],preferentially inhibit COX-1
CC(C)Cc1ccc(C(C)C(=O)O)cc1 (stereo not shown) [ibuprofen],preference in inhibition of COX-1 and COX-2,[1],no or small preferences in inhibition of COX-1 and COX-2
COc1ccc2c(c1)c(CC(=O)O)c(C)n2C(=O)c1ccc(Cl)cc1 [indomethancin],preference in inhibition of COX-1 and COX-2,[1],preferentially inhibit COX-1
CCN(CC)CC(=O)Nc1c(C)cccc1C [lidocaine],"tactile allodynia, ipsilateral hind paw","[6]; 100 μg intrathecal, four weeks following SNL, two hours and 2 days following injection",markedly reversed to the prelesion level
same,withdrawal threshold in the hind paw,"[6]; 100 μg intrathecal, three days after injection",not significantly lower than the prelesion baseline value
same,"tactile allodynia, ipsilateral hind paw","[6]; 200 μg intrathecal, four weeks following SNL, two hours and 2 days following injection",markedly reversed to the prelesion level
same,"tactile allodynia, ipsilateral hind paw","[6]; 200 μg intrathecal, three days after injection",reappeared
same,"tactile allodynia, ipsilateral hind paw","[6]; 300 μg intrathecal, four weeks following SNL, two hours and 2 days following injection",markedly reversed to the prelesion level
same,"tactile allodynia, ipsilateral hind paw","[6]; 300 μg intrathecal, three days after injection",reappeared
same,behavior,[7],no abnormal behavior
same,"transient weakness or paralysis of both hind limbs, incidence",[8]; 100 μg intrathecal,completely absent
same,"transient weakness or paralysis of both hind limbs, incidence",[8]; 200 μg intrathecal,one third of rats
same,"transient weakness or paralysis of both hind limbs, incidence",[8]; 300 μg intrathecal,almost all rats
same,duration of transient weakness or paralysis,[8]; intrathecal lidocaine,10 to 20 min
same,tactile allodynia,"[9]; 300 μg intraperitoneal, four PSNL rats",no attenuation or reversal of tactile allodynia was observed
same,antiallodynic effect,"[9]; 300 μg intrathecal, 1 week after injection",disappeared
same,effect on the ipsilateral hind paw,[9]; [13],antinociceptive effect
same,reversal of tactile allodynia,[9]; [13],also observed
same,tactile allodynia in both hind paws,"[9]; 300 μg intrathecal, two weeks after PSNL, two hours following injection",significantly reversed
CN1CC[C@]23c4c5ccc(O)c4O[C@H]2[C@@H](O)C=C[C@H]3[C@H]1C5 [morphine],ambulatory activity in sham animals,[10]; 1 mg/kg,stimulates ambulatory activity
same,effect of laparotomy on ambulatory activity,[10]; [14],blocked; also recorded: reversed
same,effect of laparotomy on vertical activity,[10]; [14],not vertical counts; also recorded: not vertical activity
CS(=O)(=O)Nc1ccc([N+](=O)[O-])cc1Oc1ccccc1 [nimesulide],preference in inhibition of COX-1 and COX-2,[1],preferentially inhibit COX-2
CN1C(C(=O)Nc2ccccn2)=C(O)c2ccccc2S1(=O)=O [piroxicam],well established tactile allodynia in either hindpaw,[4]; 4 weeks after PSNL,failed to attenuate
CS(=O)(=O)c1ccc(C2=C(c3ccccc3)C(=O)OC2)cc1 [rofecoxib],reduction of nociceptive responses,[11],no effect
same,reduction of nociceptive responses,[12],no effect
